In publication PMC11959975 (Acta Pharmaceutica Sinica. B, 2025):

How the values were obtained:
mice = experiment: Bleeding time of tail clipping in mice; assay type: in vivo; conditions: 5 mg/kg
[1] = test system: arteriovenous shunt thrombosis model in rats; experiment: Arteriovenous shunt thrombosis model in rats; assay type: in vivo; conditions: 10 mg/kg, i.v.
[2] = test system: permanent cerebral ischemic stroke in rats; experiment: Rat model of permanent ischemic stroke; assay type: in vivo, SD rats; conditions: permanent IS rats
MCAO model of SD rats [3] = experiment: Rat model of acute ischemic stroke; assay type: in vivo; conditions: acute IS rats, 10 mg/kg
MCAO model of SD rats [4] = experiment: Rat model of chronic ischemic stroke; assay type: in vivo; conditions: chronic IS rats

| SMILES | Bleeding time (mice) [min] | inhibition (%) of dry thrombus [1] [%] | inhibition (%) of wet thrombus [1] [%] | reduction of cerebral infarction volume vs model group ([2]; 10 mg/kg) [%] | NSS value ([2]; day 1 after surgery) | reduction of cerebral infarction volume vs model group (MCAO model of SD rats [3]) [%] | reduction of cerebral infarction volume (MCAO model of SD rats [4]; 5.0 mg/kg) [%] | misstep frequency (grid test) (MCAO model of SD rats [4]; day 14 after modeling) |
| --- | --- | --- | --- | --- | --- | --- | --- | --- |
| CC(=O)Oc1ccccc1C(=O)O [ASP, O-acetoxybenzoic acid] | 22.52 ± 1.31 | 39.67 | 40.74 |  |  |  |  |  |
| CCCC[C@@H]1OC(=O)c2ccccc21 [S-NBP] |  | 25.95 | 33.24 |  |  |  |  |  |
| CCCCC(O)c1ccccc1C(=O)[O-].[K+] (stereo not drawn) [PHPB, potassium 2-(1-hydroxypentyl)-benzoate] |  | 11.32 | 15.39 |  |  |  |  |  |
| CCCCC1OC(=O)c2ccccc21 (stereo not drawn) [NBP, R,S-3-n-butylphthalide] |  |  |  | 7 | lower than that of the model group but without significant difference | 35 | 32 | significantly higher than that in the sham group |
